Laboratory results from article PMC12344774, “Ferrocenyl Quinoline-Benzimidazole Hybrids: A Multistage Strategy to Combat Drug-Resistant Malaria” (Inorganic Chemistry, 2025).

Columns and labels:
[1] = Hydroxyl radical (ROS) generation with H2O2, DCFH2 fluorescent probe; settings: 200 μM in 1:4 DMSO/PBS, H2O2 and H2DCF added, 30 min
Text: Fluorogenic redox-sensitive probes are often employed to measure the presence of ROS, due to their low cost, ease of use, and nontoxicity, allowing for spectrofluorimetric measurements. 2′,7′-Dichlorodihydrofluorescein diacetate (DCFH2-DA) is the most widely used fluorogenic probe. Cleavage of the acetate groups, through alkaline hydrolysis, generates 2′,7′-dichlorodihydrofluorescein (DCFH2), which in the presence of oxidants, yields the highly fluorescent 2′,7′-dichlorofluorescein (DCF, λem = 523 nm). The DCFH2 probe reacts with an array of oxidants, making it an ideal indicator of general oxidative stress. […] The presence of these radicals was confirmed by monitoring the fluorescence over time (Figure ). […].
Stock solutions of DCFH2-DA were prepared to 1 mM in 100% DMSO and stored at −20 °C in the dark until use. The deacetylation of DCFH2-DA involved adding 2 μL of a 0.5 M NaOH solution to 200 μL of the 1 mM DCFH2-DA stock solution. The solution was mixed for 30 min, in the dark, at room temperature and then quenched with 800 μL of PBS buffer to obtain a 200 μM H2DCF 1:4 DMSO/PBS solution mixture.
[…]. The fluorometer was blanked using a 1:4 DMSO/PBS solution mixture. To identify hydroxyl radical production, 2 μL of a 0.5% H2O2 solution was added to 900 μL of the 200 μM complex solution in a cuvette at 25 °C. 100 μL of the prepared H2DCF solution (200 μM) was quickly added, and the readings recorded at 530 nm (emission wavelength), at 2 min intervals, over 30 min.

β-hematin formation = test: NP-40 detergent-mediated β-hematin formation inhibition assay (cell-free); type: biochemical; settings: NP-40, pH 4.8, 5 h, 37 °C, read-out: β-hematin formation inhibition IC50 ± SEM
Text: The ability of a compound to inhibit Hz formation can be predicted using the biomimetic cell-free NP40 detergent-mediated β-hematin formation inhibition assay. , This assay mimics the conditions in the acidic DV of the parasite and relies on the binding of pyridine to uncrystallized free heme to detect the inhibition of β-hematin formation using UV–vis spectroscopy (with absorbance measured at 405 nm). , Consequently, the ability of the ferrocenyl quinoline-benzimidazole hybrids (C1–C5) to inhibit β-hematin (synthetic Hz) formation was investigated as a potential mechanism of antiplasmodial action.
The β-hematin formation inhibition assay was modified from the method reported by Sandlin et al. , Stock solutions of the respective test compounds were prepared to 10 mM, in 100% DMSO, with the exception of CQ (used in the salt form, CQDP), which was prepared in Milli-Q water. […] NP-40 is a detergent used to mediate the formation of β-hematin. The solution in column 12 was then serially diluted 2-fold, through to column 2, to give a total of 11 concentrations. Column 1 contained 0 μM of the test compound and thus served as a blank. […] A 178.8 μL aliquot of this hematin suspension was added to 20.0 mL of a 2 M acetate buffer (pH = 4.8) and 100 μL of this solution added to each well. The plates were then covered and incubated for 5 h, at 37 °C. The assay was analyzed using the pyridine-ferrochrome method developed by Ncokazi and Egan. A solution containing water/acetone/2 M HEPES buffer (pH 7.4)/pyridine, in a v/v ratio of 2/2/1/5, was prepared and 32 μL was added to all wells, followed by 60 μL of acetone. The absorbance values were then measured at 405 nm, the results plotted using GraphPad Prism (v5), and the IC50 values obtained using a sigmoidal dose–response curve fitting analysis.

[2] = tested on: Immature gametocytes (>90% stage II/III); test: microbe, parasite or virus in culture; type: cell-based, Plasmodium falciparum; settings: 48 h drug pressure; for % Inhibition, immature gametocytes: maximum inhibition at 10 μM
Method: (§1) Compounds are diluted 3-fold in at least a 9-point serial dilution series starting at 20 μM, with a nonlethal DMSO concentration of <0.1% maintained. Luciferase activity was determined in 30 μL parasite lysates by adding 30 μL luciferin substrate (Promega Luciferase Assay System) at room temperature and detection of resultant bioluminescence at an integration constant of 10 s with the GloMax-Multi + Detection System with Instinct Software. Methylene blue (5 μM) and the clinical antimalarial candidate MMV390048 (5 μM) were used as controls. IC50 values were determined in GraphPad Prism using a nonlinear regression fit with variable slope (4-parameter) on the dose–response data.
(§2) Assay quality parameters are evaluated for each assay, including Z′-factors (data quality compared to reproducibility using signal, noise, and background parameters; accepted metric >0.6), regression (accepted r 2 > 0.9); >80% viable parasites (top plateau); <20% killed parasites (bottom plateau), hill slope ∼1.

[3] = tested on: Mature gametocytes (>95% stage V); test: microbe, parasite or virus in culture; type: cell-based, Plasmodium falciparum; settings: 48 h drug pressure; for % Inhibition, mature gametocytes: maximum inhibition at 10 μM
Method: as §1, §2

[4] = Cyclic voltammetry of the ferrocene/ferrocenium couple; type: physicochemical; settings: for Reversibility of the ferrocene/ferrocenium couple: DCM/0.1 M TBAP system
Method: It has been proposed that the oxidation of ferrocene (Fe(C5H5)2) to the ferrocenium cation (Fe(C5H5)2 ^+) is a reversible one-electron transfer process. […] This prompted the investigation into the electrochemical properties of the Fe(C5H5)2/Fe(C5H5)2 ^+ couple in complexes C1–C5, using cyclic voltammetry. FQ was used as the reference, as it is considered the benchmark for all newly developed ferrocenyl-based antiplasmodials.
Nuclear magnetic resonance (NMR) spectra were recorded on a Bruker XR600 MHz spectrometer (^1H at 599.95 MHz and ^13C{^1H} at 151.0 MHz), a Bruker […] (^1H at 400.22 MHz and ^13C{^1H} at 100.65 MHz), or a Varian Mercury 300 (^1H at 300.08 MHz) spectrometer. These were equipped with a Bruker Biospin GmbH casing and sample injector at 30 °C and tetramethylsilane (TMS) was used as the internal standard. Coupling constants are reported in Hz and chemical shifts are reported in ppm relative to residual solvent signals. Infrared (IR) spectroscopy was performed on a PerkinElmer Spectrum 100 FT-IR spectrometer, using attenuated total reflectance (ATR), with vibrations measured in units of cm^–1. Cyclic voltammetric measurements were carried out at ambient temperature under an inert argon atmosphere using a three-electrode system on a BASi Epsilon Eclipse potentiostat/galvanostat electrochemical workstation. The C-3 cell stand, equipped with a glassy carbon working electrode, Ag/AgCl (saturated NaCl) reference electrode, and a Pt wire auxiliary electrode were used to carry out electrochemical measurements. All experiments were carried out in anhydrous dichloromethane containing 0.10 M tetra-n-butylammonium perchlorate (TBAP) as the supporting electrolyte.

[5] = scan rate 100 mV/s, CH2Cl2, 0.1 M TBAP
[6] = vs Ag/AgCl, scan rate 100 mV/s, CH2Cl2, 0.1 M TBAP

Row | Structure (SMILES) | Hydroxyl radical generation (fluorescence intensity over time) [1] | IC50 (β-hematin formation) | % Inhibition, immature gametocytes [2] | % Inhibition, mature gametocytes [3] | Reversibility of the ferrocene/ferrocenium couple [4] | Ipc/Ipa [4, 5] | ΔE [4, 5] | Anodic peak potential Epa [4, 6] | Cathodic peak potential Epc [4, 6] | Half-wave potential E1/2 [4, 6] | IC50 ([2]; read-out: IC50 ± S.E., immature gametocytes) | IC50 ([3]; read-out: IC50 ± S.E., mature gametocytes)
1 | Cc1ccc2c(c1)nc(-[c-]1cccc1)n2CCCNc1ccnc2cc(Cl)ccc12.[Fe+2].c1cc[cH-]c1 [Complex C1, 7-chloro-N-(3-(5-(methyl)-2-ferrocenyl-1H-benzo[d]imidazole-1-yl)propyl)quinolin-4-amine] | no changes in the fluorescence intensity | 7.26 µM | 3% | 7% | chemically and electrochemically reversible | 1.04 | 0.127 V | 0.638 V | 0.510 V | 0.574 V | – | –
2 | Cc1ccc2c(c1)nc(-[c-]1cccc1CN(C)C)n2CCCNc1ccnc2cc(Cl)ccc12.[Fe+2].c1cc[cH-]c1 (stereo not drawn) [Complex C3, 7-Chloro-N-(3-(5-methyl-2-(2-N,N-dimethylaminomethyl)ferrocenyl-1H-benzo[d]-imidazole-1-yl)propyl) Quinoline-4-amine] | produce hydroxyl radicals | 5.42 µM | 88% | 99% | chemically and electrochemically irreversible | – | – | 0.678 V | – | – | 2.35 µM | 7.27 µM
